Active and inactive are the calls of the source. The rule behind the calls is not given here.
Tests used:
MCF7 [1] = test: Cytotoxicity against human MCF7 cells after 48 hrs by MTT assay; format: functional, cell-based; details: MCF7, 48 h
MCF7 [2] = test: Cell cycle arrest in human MCF7 cells assessed as accumulation at subG1 phase at 1 uM after 48 hrs by propidium iodide staining based flow cytometry (reference value: 3.04%); format: functional
Calf thymus DNA [3] = test: Binding affinity to calf thymus DNA assessed as hypochromic shift at 50 uM by UV-Vis absorption spectrophotometric method; format: nucleic-acid assay; details: Bos taurus
Calf thymus DNA [4] = test: Binding affinity to calf thymus DNA at 50 uM by UV-Vis absorption spectrophotometric method; format: nucleic-acid assay; details: Bos taurus
MCF7 [5] = test: Induction of apoptosis in human MCF7 cells assessed as necrotic cells at 1 uM after 48 hrs by Annexin-V-FITC/propidium iodide staining based flow cytometry (reference value: 3.67%); format: functional
MCF7 [6] = test: Induction of apoptosis in human MCF7 cells assessed as early apoptotic cells at 1 uM after 48 hrs by Annexin-V-FITC/propidium iodide staining based flow cytometry (reference value: 0.09%); format: functional
MCF7 [7] = test: Cell cycle arrest in human MCF7 cells assessed as accumulation at G2/M-phase at 1 uM after 48 hrs by propidium iodide staining based flow cytometry (reference value: 33.65%); format: functional
Calf thymus DNA [8] = test: Binding affinity to calf thymus DNA assessed as increase in viscosity at 15 uM by viscometric method; format: nucleic-acid assay; details: Bos taurus
MCF7 [9] = test: Cytotoxicity against human MCF7 cells assessed as cell death at 1 uM after 24 hrs by propidium iodide/Hoechst 33342 staining based fluorescence microscopic analysis; format: functional
Topoisomerase I = target: T1, Topoisomerase I (Bos taurus, UniProt Q2HPH0); test: Inhibition of calf thymus topoisomerase 1-mediated relaxation of supercoiled pBR322 DNA measured after 30 mins by agarose gel electrophoresis method
T1 sequence (Q2HPH0 whole entry): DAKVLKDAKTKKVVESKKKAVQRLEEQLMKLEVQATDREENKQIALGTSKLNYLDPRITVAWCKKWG

MCF7 [10] = test: Cell cycle arrest in human MCF7 cells assessed as accumulation at G1 phase at 1 uM after 48 hrs by propidium iodide staining based flow cytometry (reference value: 45.98%); format: functional
MCF7 [11] = test: Cell cycle arrest in human MCF7 cells assessed as accumulation at subG1 phase at 0.5 uM after 48 hrs by propidium iodide staining based flow cytometry (reference value: 3.04%); format: functional
MCF7 [12] = test: Induction of apoptosis in human MCF7 cells assessed as increase in number of wrinkled cells at 1 uM after 48 hrs by Hoechst 33342 staining based confocal microscopic analysis; format: functional, cell-based
MCF7 [13] = test: Induction of apoptosis in human MCF7 cells assessed as necrotic cells at 0.5 uM after 48 hrs by Annexin-V-FITC/propidium iodide staining based flow cytometry (reference value: 3.67%); format: functional
MCF7 [14] = test: Cell cycle arrest in human MCF7 cells assessed as accumulation at S-phase at 1 uM after 48 hrs by propidium iodide staining based flow cytometry (reference value: 15.64%); format: functional
HeLa = test: Cytotoxicity against human HeLa cells after 48 hrs by MTT assay; format: functional, cell-based
A549 = test: Cytotoxicity against human A549 cells after 48 hrs by MTT assay; format: functional, cell-based; details: A549, 48 h
MCF7 [15] = test: Induction of apoptosis in human MCF7 cells assessed as viable cells at 0.5 uM after 48 hrs by Annexin-V-FITC/propidium iodide staining based flow cytometry (reference value: 96.18%); format: functional; details: MCF7, 48 h, read-out: Activity
MCF7 [16] = test: Induction of apoptosis in human MCF7 cells assessed as viable cells at 1 uM after 48 hrs by Annexin-V-FITC/propidium iodide staining based flow cytometry (reference value: 96.18%); format: functional; details: MCF7, 48 h, read-out: Activity
NIH3T3 [17] = test: Cytotoxicity against mouse NIH/3T3 cells after 48 hrs by MTT assay; format: cell-based; details: NIH3T3, 48 h
B16 = test: Cytotoxicity against mouse B16 cells after 48 hrs by MTT assay; format: functional, cell-based; details: B16, 48 h
MCF7 [18] = test: Cell cycle arrest in human MCF7 cells assessed as accumulation at G1 phase at 0.5 uM after 48 hrs by propidium iodide staining based flow cytometry (reference value: 45.98%); format: functional
Calf thymus DNA [19] = test: Binding affinity to calf thymus DNA assessed as maximum absorption peak at 50 uM by UV-Vis absorption spectrophotometric method; format: nucleic-acid assay; details: Bos taurus
MCF7 [20] = test: Induction of apoptosis in human MCF7 cells assessed as early apoptotic cells at 0.5 uM after 48 hrs by Annexin-V-FITC/propidium iodide staining based flow cytometry (reference value: 0.09%); format: functional
NIH3T3 [21] = test: Cytotoxicity against mouse NIH/3T3 cells assessed as cell death at 1 uM after 24 hrs by propidium iodide/Hoechst 33342 staining based fluorescence microscopic analysis; details: nih3t3, 24 h
MCF7 [22] = test: Cell cycle arrest in human MCF7 cells assessed as accumulation at G2/M-phase at 0.5 uM after 48 hrs by propidium iodide staining based flow cytometry (reference value: 33.65%); format: functional
Calf thymus DNA [23] = test: Binding affinity to calf thymus DNA assessed as DNA winding at 1:1 to 1:2 ratio of DNA to compound by circular dichroism analysis; format: nucleic-acid assay; details: Bos taurus
MCF7 [24] = test: Cell cycle arrest in human MCF7 cells assessed as accumulation at S-phase at 0.5 uM after 48 hrs by propidium iodide staining based flow cytometry (reference value: 15.64%); format: functional
MCF7 [25] = test: Induction of apoptosis in human MCF7 cells assessed as DNA fragmentation at 1 uM after 48 hrs by Hoechst 33342 staining based confocal microscopic analysis; format: functional, cell-based
MCF7 [26] = test: Induction of apoptosis in human MCF7 cells assessed as late apoptotic cells at 0.5 uM after 48 hrs by Annexin-V-FITC/propidium iodide staining based flow cytometry (reference value: 0.06%); format: functional
Calf thymus DNA [27] = test: Binding affinity to calf thymus DNA assessed as fluorescence quenching at 10 uM by spectrofluorimetric method; format: nucleic-acid assay; details: Bos taurus
MCF7 [28] = test: Induction of apoptosis in human MCF7 cells assessed as late apoptotic cells at 1 uM after 48 hrs by Annexin-V-FITC/propidium iodide staining based flow cytometry (reference value: 0.06%); format: functional

Activity (Calf thymus DNA [3]): inactive
K (Calf thymus DNA [4]): 1 ×10³ /M
Activity (Calf thymus DNA [8]): Active
IC50 (Topoisomerase I): 0.014 µM
Activity (Calf thymus DNA [19]): 287 to 369 nm
Activity (Calf thymus DNA [23]): Active
Activity (Calf thymus DNA [27]): Active
SMILES: COc1ccc(-c2nc(CNC(=O)/C=C/c3cccc(O)c3)cc3c2[nH]c2ccccc23)cc1
IC50 (MCF7 [1]): 0.0138 µM
Activity (MCF7 [2]): 4.32%
Activity (MCF7 [5]): 9.55%
Activity (MCF7 [6]): 9.46%
Activity (MCF7 [7]): 39.25%
Activity (MCF7 [9]): Active
Activity (MCF7 [10]): 40.12%
Activity (MCF7 [11]): 4.61%
Activity (MCF7 [12]): Active
Activity (MCF7 [13]): 6.45%
Activity (MCF7 [14]): 16.29%
IC50 (HeLa): 0.0223 µM
IC50 (A549): 0.0189 µM
viability at 0.5 µM (MCF7 [15]): 81.3%
viability at 1 µM (MCF7 [16]): 77.3%
IC50 (NIH3T3 [17]): 0.0372 µM
IC50 (B16): 0.0163 µM
Activity (MCF7 [18]): 46.11%
Activity (MCF7 [20]): 9.75%
Activity (NIH3T3 [21]): Non-Toxic
Activity (MCF7 [22]): 32.46%
Activity (MCF7 [24]): 16.81%
Activity (MCF7 [25]): Active
Activity (MCF7 [26]): 2.5%
Activity (MCF7 [28]): 3.69%
